# Results reported in article PMC9188586, “Design, synthesis and evaluation of novel tetrahydropyridothienopyrimidin-ureas as cytotoxic and anti-angiogenic agents” (Scientific Reports, 2022).
# Several values for one entry are separate records, joined by “and”; a condition that tells them apart may be missing. Equal entries are not always repeated.
# Experiments:
# [1] = tested on: MCF-7 cells; assay: Cell cycle analysis by flow cytometry, MCF-7; type: cell-based; conditions: MCF-7, IC50 concentration, 48 h
# Procedure: (§1) We can conclude that compound 11n induces cellular apoptosis in […]. An increase in sub-G1 area is an indicative of apoptosis.
# (§2) After trypsinization and rinsing with PBS, the cells were centrifuged at 1200 rpm for 5 min and then incubated with PBS and fixed in ice-cooled 70% ethanol. After washing with PBS, the cells were resuspended in RNase A (0.1 mg/mL) and incubated for 5 h. Then, staining with PI ([…]) and incubation for 15 min were performed. By using Novocyte flow cytometer (ACEA Biosciences) the analysis was done and the calculation of cell cycle distributions was done by NovoExpress 1.1.0 software.
# [2] = tested on: SW480 (colon cancer); assay: MTT antiproliferative assay, SW480; type: cell-based; conditions: Homo sapiens, SW480, 48 h incubation
# Procedure: (§3) Two series of new tetrahydropyridothienopyrimidines were evaluated for their cytotoxicity against a panel of cell lines, including MCF-7 (breast cancer), SW480 (colon cancer), PC-3 (prostate cancer), HEPG-2 (liver cancer) and HUVEC (human umbilical vein endothelial cell) using 3-(4,5-dimethyl- thiazol-2-yl)-2,5-diphenyltetrazolium bromide (MTT) assay. Sorafenib was used as a positive control. The cytotoxicity is expressed as the concentration that inhibits 50% of cell viability (IC50). […] The preliminary SAR is evaluated on the basis of cytotoxicity results of phenyl derivatives (11a–k) and pyridine derivatives (11l–11y).The mesomeric effect didn’t improve the cytotoxicity of compound 11d in the first series.
# (§4) Cytotoxicity of the compounds was measured by detecting the ability of cells in transforming MTT into a purple formazan dye. The different cell lines were provided by the National Cell Bank of Iran (Pastor Institute, Tehran, Iran). The required materials and reagents were purchased from Sigma. After the cell culture in RPMI-1640 medium and DMEM containing 10% FBS (Gibco, Milano, Italy), the suspension of MCF-7 (7000) and other cells (5000) were poured into 96 well plates and incubated in a humidified incubator containing 5% CO2 at 37 °C for 24 h. Subsequently, a solution of the compounds in DMSO was added to these plates and incubated for 48 h. After incubation, the solution of 5% 3-(4,5-Dimethyl-2-thiazolyl)-2,5-diphenyl-2H-tetrazolium bromide (MTT) was added to all the wells and incubation was continued for another 4 h. The record of color intensity of the formazan solution was at 570 nm by Bio-Rad microplate reader (Model 680) which reflects the cell growth condition.
# [3] = tested on: HUVEC (human umbilical vein endothelial cell); assay: MTT antiproliferative assay, HUVEC; type: cell-based; conditions: Homo sapiens, HUVEC; MTT assay, 48 h incubation
# Procedure: as §3, §4
# [4] = tested on: HEPG-2 (liver cancer); assay: MTT antiproliferative assay, HEPG-2; type: cell-based; conditions: Homo sapiens, HepG2, 48 h incubation
# Procedure: as §3, §4
# [5] = tested on: caspase-3; assay: Caspase-3 level by ELISA in MCF-7 cells; type: cell-based, human; conditions: 24 h
# Procedure: The activity of caspase (cysteinyl-aspartate-specific proteases) as intracellular cell death enzymes has been characterized. So, the […] the process[28]–[31].
# Caspase-3 activity was measured using a caspase-3 (Active) (human) ELISA kit, MBS450774, according to the manufacturer’s instructions.
# [6] = target: T1, VEGFR-2 (Homo sapiens, UniProt P35968); assay: Western blot of VEGFR-2 phosphorylation in HUVECs; type: cell-based; conditions: HUVEC, IC50 concentration, after 48 and 72 h, compared to positive control
# T1 construct: endogenous in cells; host or cells: HUVEC
# T1 sequence (P35968 20-1356): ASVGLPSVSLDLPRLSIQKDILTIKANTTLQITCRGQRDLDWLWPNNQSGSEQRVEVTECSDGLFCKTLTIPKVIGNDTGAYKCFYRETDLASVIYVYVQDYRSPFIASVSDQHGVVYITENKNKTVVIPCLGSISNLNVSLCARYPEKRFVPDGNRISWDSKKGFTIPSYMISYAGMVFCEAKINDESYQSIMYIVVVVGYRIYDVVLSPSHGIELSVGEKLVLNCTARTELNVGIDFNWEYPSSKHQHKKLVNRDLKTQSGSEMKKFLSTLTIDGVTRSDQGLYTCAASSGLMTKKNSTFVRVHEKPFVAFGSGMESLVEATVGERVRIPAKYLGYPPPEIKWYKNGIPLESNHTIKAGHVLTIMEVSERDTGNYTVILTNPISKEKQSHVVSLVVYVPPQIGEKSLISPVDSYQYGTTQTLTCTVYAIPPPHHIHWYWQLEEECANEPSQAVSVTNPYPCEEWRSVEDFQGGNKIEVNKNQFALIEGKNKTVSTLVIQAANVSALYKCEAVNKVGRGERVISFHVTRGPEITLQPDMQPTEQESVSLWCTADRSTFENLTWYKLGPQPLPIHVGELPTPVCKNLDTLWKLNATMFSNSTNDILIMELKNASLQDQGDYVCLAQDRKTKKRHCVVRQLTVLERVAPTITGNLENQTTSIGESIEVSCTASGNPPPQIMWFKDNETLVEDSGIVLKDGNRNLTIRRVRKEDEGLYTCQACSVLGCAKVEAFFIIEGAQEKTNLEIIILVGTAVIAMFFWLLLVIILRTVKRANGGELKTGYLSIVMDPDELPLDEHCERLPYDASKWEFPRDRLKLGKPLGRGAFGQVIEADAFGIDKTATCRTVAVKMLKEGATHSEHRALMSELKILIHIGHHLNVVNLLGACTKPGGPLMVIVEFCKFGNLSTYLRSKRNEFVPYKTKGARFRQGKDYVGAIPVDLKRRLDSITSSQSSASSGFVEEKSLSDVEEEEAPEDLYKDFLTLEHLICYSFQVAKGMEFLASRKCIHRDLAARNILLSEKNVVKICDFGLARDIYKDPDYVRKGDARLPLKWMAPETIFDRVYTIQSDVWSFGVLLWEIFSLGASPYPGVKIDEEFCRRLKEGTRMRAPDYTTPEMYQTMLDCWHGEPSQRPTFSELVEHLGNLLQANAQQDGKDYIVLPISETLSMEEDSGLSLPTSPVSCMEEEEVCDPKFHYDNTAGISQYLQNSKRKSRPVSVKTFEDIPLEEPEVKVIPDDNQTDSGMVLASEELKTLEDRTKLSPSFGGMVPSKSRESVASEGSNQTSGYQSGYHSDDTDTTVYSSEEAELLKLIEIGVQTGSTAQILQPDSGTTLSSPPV
# Procedure: It was is observed that, after 48 and 72 h, the phosphorylation of VEGFR-2 decreases compared to the positive control (Fig. 7).
# After thawing in […] lysis buffer and centrifuge at 1200 rpm, the loading and electrophoresis of proteins on 12% SDSPAGE was performed. Then, they transferred for 1.5 h at 100 V into a nitrocellulose membrane ([…]) and blocked with 5% blocking buffer. After incubation of antibodies at 4 ◦C for 12 h, the detection of immunoblots were performed using the enhanced chemiluminescence (ECL) method.
# [7] = tested on: MRC5 normal cell line; assay: MTT cytotoxicity against normal cell line MRC5; type: cell-based; conditions: for IC50: Homo sapiens, MRC5, MTT assay, normal cell line
# Procedure: as §4
# [8] = tested on: HUVEC cells; assay: Annexin V/PI flow cytometry apoptosis analysis, HUVEC; type: cell-based, human; conditions: IC50 concentration, 48 h, one replicate
# Procedure: (§5) The experiment was conducted by flow cytometry analysis of […] cells with propidium iodide (PI) and annexin V-fluorescein isothiocyanate (annexine V-FITC).
# (§6) Then, cells were trypsinized, rinsed with phosphate-bufferede buffered saline (PBS) and then centrifuged at 1200 rpm for 3 min. After this, the binding buffer (500 μL) was added to the resulting cells, followed by addition and mixing with […] and PI (5 μL). After this, the samples were incubated in dark for 10 to 15 min at room temperature, and then the cellular analysis was measured by flow cytometer (FACS Calibur Bectone-Dickinson).
# [9] = tested on: chick chorioallantoic membrane (CAM); assay: Chick chorioallantoic membrane (CAM) anti-angiogenic assay; type: in vivo; conditions: IC50 concentration, compared with Sorafenib as positive control
# Procedure: The hydrogen bonding between NH groups of urea and target proteins were known to give rise to better inhibition of an important growth factor receptor (VEGFR-2) involved in the process of angiogenesis. Thus, the chick chorioallantoic membrane (CAM) assay was utilized as an in-vivo technique to evaluate the anti-vascular effects. Therefore, the anti-angiogenic strength of compounds were investigated by a cheap and simple CAM assay (Figs. 4, 5)[32],[33]. The anti-angiogenic strength was measured and compared with DMSO (control) and Sorafenib as a positive control.
# All eggs were supplied from (Poultry Breeding Farm, Tehran, Iran). Since the allantois of the chick embryo appears at about 3.5 days of incubation, the corresponding eggs were incubated (37.5 °C, relative humidity: 55–65%). To decrease the risk of infection, the particular regions of the egg, e.g., the front side of the embryo were cleaned and sterilized with 70% EtOH. On the 6th incubation day, a false air sac was created directly over the CAM, permitting its detachment from the shell membrane. The procedure was continued through a square incision over the CAM. The prepared window in a square form (1 × 1 cm), was covered by a flexible film and then transported to the incubator. On the 8th incubation day, the particular paper discs (Whatman) were coated with target agents and placed in the central area of the corresponding window. The surface of CAM was visually evaluated on the 12th incubation day using the stereomicroscope. We decided to use the number and the length of capillary blood vessels as the index of anti-angiogenic activity. Consequently, the prepared images were analyzed by the advantageous software, Image J[22],[23].
# [10] = tested on: MCF-7 cells; assay: Annexin V/PI flow cytometry apoptosis analysis, MCF-7; type: cell-based; conditions: MCF-7, IC50 concentration, 48 h, one replicate
# Procedure: as §5, §6
# [11] = tested on: MCF-7 (breast cancer); assay: MTT antiproliferative assay, MCF-7; type: cell-based; conditions: Homo sapiens, MCF7, 48 h incubation
# Procedure: as §3, §4
# [12] = tested on: PC-3 (prostate cancer); assay: MTT antiproliferative assay, PC-3; type: cell-based; conditions: 48 h incubation
# Procedure: as §3, §4
# [13] = tested on: HUVEC cells; assay: Cell cycle analysis by flow cytometry, HUVEC; type: cell-based, human; conditions: IC50 concentration, 48 h
# Procedure: as §1, §2
# [14] = tested on: HUVEC and MCF-7 cells; assay: Cell cycle analysis by flow cytometry, cell line not given; type: cell-based; conditions: cell line not stated, IC50 concentration, 48 h
# Procedure: An increase in sub-G1 area is an indicative of apoptosis.
# as §2
smiles,measurement,setting,value
"Cc1ccc(NC(=O)Nc2nnc(Sc3ncnc4sc5c(c34)CCN(Cc3ccncc3)C5)s2)cc1 [Compound 11n, 1-(5-((7-(pyridin-4-ylmethyl)-5,6,7,8-tetrahydropyrido[4',3':4,5]thieno[2,3-d]pyrimidin-4-yl)thio)-1,3,4-thiadiazol-2-yl)-3-(p-tolyl)urea]",Percentage of cells in G0 phase,[1],54.3%
same,IC50,[2],6.84 ± 0.05 µM
same,IC50,[3],2.09 ± 0.08 µM
same,IC50,[4],7.2 ± 0.03 µM
same,Casp3 conc.,"[5]; 11n at 2.67 μM, Sorafenib at 7.06 μM",3.63 ± 0.52 ng/mL
same,FLD (fold change of caspase-3 level),[5]; control = 1,5.2 fold
same,Phosphorylation of VEGFR-2 (in words),[6],decreases
same,IC50,[7],38.1 ± 0.81 µM
same,SI (Selectivity Index),[7]; IC50 value normal cell (MRC5)/IC50 value cancer cell (MCF-7),14 and 14.2
same,Early apoptotic cells (Q3),[8],16.5%
same,Late apoptotic cells (Q2),[8],79.8%
same,Inhibitory effect on growing CAM (in words),[9],slightly weaker inhibitory effects
same,Early apoptotic cells (Q3),[10],22.8%
same,Late apoptotic cells (Q2),[10],58.2%
same,IC50,[11],2.67 ± 0.21 µM
same,IC50,[12],11.35 ± 0.09 µM
same,Percentage of cells in G0 phase,[13],65.5%
"Cc1ccccc1NC(=O)Nc1nnc(Sc2ncnc3sc4c(c23)CCN(Cc2ccncc2)C4)s1 [Compound 11l, 1-(5-((7-(pyridin-4-ylmethyl)-5,6,7,8-tetrahydropyrido[4',3':4,5]thieno[2,3-d]pyrimidin-4-yl)thio)-1,3,4-thiadiazol-2-yl)-3-(o-tolyl)urea]",Percentage of cell population in the S phase,[1],49.8%
same,IC50,[2],15 ± 0.38 µM
same,IC50,[3],2.53 ± 0.05 µM
same,IC50,[4],9.94 ± 0.07 µM
same,IC50,[7],24.8 ± 0.36 µM
same,Early apoptotic cells (Q3),[8],5.51%
same,Late apoptotic cells (Q2),[8],89.0%
same,Percentage of cells in G0 phase,[14],97.6%
same,IC50,[11],2.8 ± 0.03 µM
same,IC50,[12],6.11 ± 0.08 µM
